Non-standard residues stand in square brackets, D forms with d. Residues, ends and D or L forms follow the SMILES beside them. *: point of attachment. Sta = CC(C)C[C@H](N)[C@@H](O)CC(=O)O; Isovaleryl = CC(C)CC(=O)*
Assays:
HIV-1 protease = test system: HIV-1 protease; parameters: method as in PMID 8185622; settings: binding activity of the experimental ligands on HIV-1 protease; cited from earlier work
HIV-1 III B = assay: Microtiter infection assay, protection of MT-4 cells from HIV cytopathic effect (MTT); assay type: cell-based; settings: for Infection assay MTT- % cell survival / inhibition of virus infectivity / viral replication in MT-4 cells: HIV-1-infected MT-4 cells; for Infection assay MTT- % cell survival: compound at MNC, 72–96 hours
Description: The evaluation of anti-HIV effect was done by an in vitro rapid and sensitive microtiter infection assay based on cytolysis quantitation by vital dye (MTT) uptake as an endpoint for infection. Additionally, the effect of inhibitors on endogenous reverse transcriptase (RT) activity of HIV-1 III B-infected MT-4 supernatants was considered as a marker for the ability of blocking HIV-1 replication. MT-4 cells were infected and incubated with each inhibitor for 72–96 hours, and then RT activity was measured in the cell supernatants according to guidelines in the HS-Lenti Kit-RT assay (Cavidi, Sweden). A study of direct effect of the newly synthesized 4-hydroxycoumarins on exogenous recombinant RT (rRT) was also performed. Further, all the compounds were tested for anti-HIV-1 PR activity. Table 3 represents the results of microtiter infection assay using MTT and inhibition of HIV-1 PR activity. The experiments were carried out in maximal nontoxic concentration (MNC) for each compound.
MT-4—a human lymphoblastoid suspension cell line, kindly provided by Gianfranco Pancino— Institute Pasteur, (Unite de Regulation des Infections Retrovirales, Paris, France) represent a classical model for experimental productive infection with HIV-1 III B strain and used as a routine target for study of effect of putative HIV inhibitors in cell culture.
As a source of HIV-1, supernatants of H9/HTLV III B line—a gift from Dr. R. Gallo (NIH, USA)— were used. Supernatants were collected and centrifuged to remove the cells, and virus stocks were prepared with known p24 antigen content (460 pg/mL, Murex HIV Antigen mAB test), RT activity (565.3 pg RT/mL, HS-Lenti RT Activity Kit, Cavidi, Sweden), and infectivity (2 × 10^6 infectious virions/mL, microtiter infection assay). MT-4 and H9/HTLV III B cells were grown in RPMI 1640 supplemented with 10% FCS (invitrogen).
(§1) The following parameters were studied: cytotoxic concentration 50—CC50, where possible (the concentration preventing death of 50% of MT-2 cells), maximal nontoxic concentration—MNC, and inhibitory concentration 50-IC50 (concentration inhibiting by 50% the viral replication). CC50 and MNC were detected by MTT uptake assay. IC50 was studied on MT-4 cells by microtiter infection assay exploring the protection of cells from the cytopathic effect of HIV measured by MTT test. Experiments under conditions of acute infection were performed in 96-well microplates with 6–8 parallels/experiment. Cell controls (MT-4 cells with medium only) and viral controls (virus infected MT-4 cells) were run with each experiment. For antivirus assays, HIV was added to each well to obtain multiplicity of infection 0.1 except the cell controls. Virus attachment was allowed for an hour at 37°C/5% CO2. The plates were incubated for 72–96 hours at 37°C/5% CO2. After that, MTT test was performed as described and absorbance of viable cells was measured colorimetrically at A540 nm. […] For antiviral assays, the mean values of experimental and control rows were compared and the percentage of cells protected (cell survival) under the appropriate concentration of the substance was plotted against the concentration of the substance to obtain IC50. The cell survival (% of cell protection) was calculated according to the following formula:
(1) % cell protection =A540X−A540 Control HIV/ A540 Cell Control−A540 Control HIV ×100, where X is the mean value of A540 of HIV-infected cells treated with appropriate concentration of the compound under study; control HIV is the mean value of A540 of HIV-infected cells without any compound added; cell control is the mean value of A540 of uninfected and untreated with inhibitor cells.

native HIV-1 protease = target: T1, native HIV-1 protease (Human immunodeficiency virus type 1 group M subtype B, UniProt P04585); assay: Antiprotease activity using native viral PR, spectrophotometric substrate utilization; assay type: biochemical; settings: compound at MNC
T1 construct: The lysis of viral particles and releasing of the active enzyme (protease) was performed using disrupting (lysis) buffer; endogenous in cells; host or cells: Virions from supernatants of chronically infected H9/HTLV IIIB cells, concentrated 50x and lysed with Triton X-100
Description: A method described earlier by Broglia et al., 2006 [19], for detection of recombinant protease activity was modified to use native viral protease. As a source of native HIV-1 protease, again suspension of concentrated viral stock (50x) from chronically infected H9/HTLV IIIB cell supernatants was used. The lysis of viral particles and releasing of the active enzyme (protease) was performed using disrupting (lysis) buffer containing 2.5% Triton X-100 in phosphate buffer. The concentration of the tissue culture fluid containing the virus was done by ultracentrifugation in Biofuge Stratos, Heraeus, for 1 hour, at 4°C and 35000 rev/min. The pellet was resuspended to obtain 50x concentrate in disrupting buffer.
The following reaction mixture was prepared for each experiment : 1000 μL phosphate buffer (20 mM, pH 6.0); 20 μL HIV protease substrate III ([…], 760 μM; Bachem, Switzerland) in DMSO, prepared ex tempore; 20 μL enzyme (stock HIV) taken from a solution containing 25 μL disrupting (lysis) buffer + 100 μL HIV-stock, incubated 40 min at 37°C prior to experiment.
The HIV-1 PR activity was measured using direct spectrophotometric reading of the enzyme reaction substrate utilization at 300 nm, at room temperature and 1 cm pathlength, using T80 + UV-Vis spectrophotometer (PG instruments). The initial reaction velocity (V0) was adjusted to be 0.0020–0.0030 ΔAbs/min by varying the enzyme activity (viral concentration). The tested compound and the reference inhibitor (pepstatin used here) was added to the reaction mixture prior to enzyme, in order to perform the screening for inhibitory effect. IC50 was defined as the concentration of the compound tested that decreases the velocity of the reaction by 50% of the initial velocity without tested (reference) compound.

MT-4 cells = assay: Cytotoxicity by MTT uptake assay (maximal nontoxic concentration); assay type: cell-based; settings: for maximal nontoxic concentration (MNC): MTT uptake assay; for maximal nontoxic concentration (MNC) / maximal nontoxic concentration (MNC), concentration tested: Table 3; for maximal nontoxic concentration (MNC), concentration tested: reference inhibitors
Description: The compounds under study were first dissolved in DMSO and further diluted in cell growth medium without fetal serum. All the solutions were prepared ex tempore.
as §1, with “CC50” for “The following parameters were studied: cytotoxic concentration 50—CC50, where possible (the concentration preventing death of 50% of MT-2 cells), maximal nontoxic concentration—MNC, and inhibitory concentration 50-IC50 (concentration inhibiting by 50% the viral replication). CC50”, “formula: […]” for “formula:”

Molecule	IC50 (HIV-1 protease) [µM]	Infection assay MTT- % cell survival (HIV-1 III B) [%]	% Inhibition of HIV-1 protease activity (native HIV-1 protease) [%]	maximal nontoxic concentration (MNC) (MT-4 cells)	further results
3-(3,4-dimethoxybenzyl)-4-hydroxy-2H-chromen-2-one [Ligand (2)]	84				
3-(3,4-dimethoxybenzyl)-4-hydroxy-8-methyl-2H-chromen-2-one [Ligand (3)]	23				
3-benzyl-4-hydroxy-8-phenyl-2H-chromen-2-one [Ligand (4)]	8.1				
4-hydroxy-3-(1-phenoxypropyl)-2H-chromen-2-one [Ligand (1)]	2.7				
4-hydroxy-3-(3-oxo-1-phenylbutyl)-2H-chromen-2-one [Ligand (5)]	18				
CCOC(=O)C(C(C)=O)C(c1ccc([N+](=O)[O-])cc1)c1c(O)c2ccccc2oc1=O (stereo not shown) [(8), Ethyl 2-[(4-Hydroxy-2-Oxo-2H-Chromen-3-yl)(4-Nitrophenyl)Methyl]-3-Oxobutanoate]		0	0	(8) (0.001) μM	
CCOC(=O)C(C(C)=O)C(c1ccc(O)cc1)c1c(O)c2ccccc2oc1=O (stereo not shown) [(9), Ethyl 2-[(4-Hydroxy-2-Oxo-2H-Chromen-3-yl)(4-Hydroxyphenyl)Methyl]-3-Oxobutanoate]		0	0	(9) (0.0001) μM	
CCOC(=O)C(C(C)=O)C(c1ccc(O)c(O)c1)c1c(O)c2ccccc2oc1=O (stereo not shown) [(10), Ethyl 2-[(3,4-Dihydroxyphenyl)(4-Hydroxy-2-Oxo-2H-Chromen-3-yl)Methyl]-3-Oxobuta-Noate]		30	16	(10) (0.0001) μM	inhibition of virus infectivity / viral replication in MT-4 cells (HIV-1 III B): inhibited viral replication
CCOC(=O)C(C(C)=O)C(c1ccc(C(=O)O)cc1)c1c(O)c2ccccc2oc1=O (stereo not shown) [(11), 4-[1-(4-Hydroxy-2-Oxo-2H-Chromen-3-yl)-2-(Ethoxycarbonyl)-3-Oxobutyl]Benzoic Acid]		0	0	(11) (0.0001) μM	
CC(=O)C(C(C)=O)C(c1ccc(O)cc1)c1c(O)c2ccccc2oc1=O (stereo not shown) [(12), 3-[(4-Hydroxy-2-Oxo-2H-Chromen-3-yl)(4-Hydroxyphenyl)Methyl]Pentane-2,4-Dione]		0	0	(12) (0.001) μM	
Nc1nc(NC2CC2)c2ncn([C@H]3C=C[C@@H](CO)C3)c2n1 [Abacavir, reference compound]		98			maximal nontoxic concentration (MNC), concentration tested (MT-4 cells): Abacavir® (35 × 10^−6 M)
CCOC(=O)C(C(C)=O)C(c1cccc([N+](=O)[O-])c1)c1c(O)c2ccccc2oc1=O (stereo not shown) [Compound (7), Ethyl 2-[(4-Hydroxy-2-Oxo-2H-Chromen-3-yl)(3-Nitrophenyl)Methyl]-3-Oxobutanoate]		78	25	(7) (0.001) μM	inhibition of virus infectivity / viral replication in MT-4 cells (HIV-1 III B): 76–78%; IC50 (HIV-1 III B; Human immunodeficiency virus 1, MT4, read-out: IC50 (concentration inhibiting by 50% the viral replication)): 0.01 nM; maximal nontoxic concentration (MT-4 cells; as stated in abstract): 1 mM
CC(C)CC(=O)N[C@H](C(=O)N[C@H](C(=O)N[C@@H](CC(C)C)[C@@H](O)CC(=O)N[C@@H](C)C(=O)N[C@@H](CC(C)C)[C@@H](O)CC(=O)O)C(C)C)C(C)C [Pepstatin, pepstatin, reference compound] (Isovaleryl-VV[Sta]A[Sta]-OH)			100		maximal nontoxic concentration (MNC), concentration tested (MT-4 cells): Pepstatin® (4.5 × 10^−5 M)

Source: publication PMC3263710, “Synthesis and Inhibiting Activity of Some 4-Hydroxycoumarin Derivatives on HIV-1 Protease” (ISRN Pharmaceutics, 2011)
